Columns and labels:
Experiment in all cases: Test C preemergence
Type in all cases: in vivo
[1] = system: Galium (catchweed bedstraw, Galium aparine); conditions: for Plant response rating, Galium: scale 0 to 100, 0 no effect, 100 complete control
Procedure, shortened: (§1)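 Visual rating, 0–100 scale (0 = no effect, 100 = complete control) versus controls, 13–15 d after treatment. Compounds in non-phytotoxic solvent plus surfactant; applied preemergence to seeds in loam/sand soil or postemergence to 1- to 4-leaf plants (2–18 cm) in peat/vermiculite medium; greenhouse-held.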

[2] = system: barnyardgrass (Echinochloa crus-galli); conditions: for Plant response rating, Barnyardgrass: scale 0 to 100, 0 no effect, 100 complete control
Procedure, shortened: as §1

[3] = system: corn (Zea mays); conditions: for Plant response rating, Corn: scale 0 to 100, 0 no effect, 100 complete control
Procedure, shortened: as §1

[4] = system: crabgrass, large (large crabgrass, Digitaria sanguinalis); conditions: for Plant response rating, Crabgrass, Large: scale 0 to 100, 0 no effect, 100 complete control
Procedure, shortened: as §1

[5] = system: foxtail, giant (giant foxtail, Setaria faberii); conditions: for Plant response rating, Foxtail, Giant: scale 0 to 100, 0 no effect, 100 complete control
Procedure, shortened: as §1

[6] = system: johnsongrass (Sorghum halepense); conditions: for Plant response rating, Johnsongrass: scale 0 to 100, 0 no effect, 100 complete control
Procedure, shortened: as §1

[7] = system: lambsquarters (Chenopodium album); conditions: for Plant response rating, Lambsquarters: scale 0 to 100, 0 no effect, 100 complete control
Procedure, shortened: as §1

[8] = system: morningglory (Ipomoea coccinea); conditions: for Plant response rating, Morningglory: scale 0 to 100, 0 no effect, 100 complete control
Procedure, shortened: as §1

[9] = system: nutsedge, yellow (yellow nutsedge, Cyperus esculentus); conditions: for Plant response rating, Nutsedge, Yellow: scale 0 to 100, 0 no effect, 100 complete control
Procedure, shortened: as §1

[10] = system: oilseed rape (Brassica napus); conditions: for Plant response rating, Oilseed Rape: scale 0 to 100, 0 no effect, 100 complete control
Procedure, shortened: as §1

[11] = system: pigweed (Amaranthus retroflexus); conditions: for Plant response rating, Pigweed: scale 0 to 100, 0 no effect, 100 complete control
Procedure, shortened: as §1

[12] = system: ragweed (common ragweed, Ambrosia elatior); conditions: for Plant response rating, Ragweed: scale 0 to 100, 0 no effect, 100 complete control
Procedure, shortened: as §1

[13] = system: ryegrass, Italian (Italian ryegrass, Lolium multiflorum); conditions: for Plant response rating, Ryegrass, Italian: scale 0 to 100, 0 no effect, 100 complete control
Procedure, shortened: as §1

[14] = system: soybean (Glycine max); conditions: for Plant response rating, Soybean: scale 0 to 100, 0 no effect, 100 complete control
Procedure, shortened: as §1

[15] = system: velvetleaf (Abutilon theophrasti); conditions: for Plant response rating, Velvetleaf: scale 0 to 100, 0 no effect, 100 complete control
Procedure, shortened: as §1

[16] = system: waterhemp (common waterhemp, Amaranthus rudis); conditions: for Plant response rating, Waterhemp: scale 0 to 100, 0 no effect, 100 complete control
Procedure, shortened: as §1

[17] = system: wheat (winter wheat, Triticum aestivum); conditions: for Plant response rating, Wheat: scale 0 to 100, 0 no effect, 100 complete control
Procedure, shortened: as §1

[18] = 31 g ai/ha, 0 is no effect, 100 is complete control

CN1CC(c2cccc(C(F)(F)F)c2)C(C(=O)Nc2ccccc2S(C)(=O)=O)C1=O (centres unmarked) [Compound 637]
Plant response rating (scale of 0 to 100), Galium [1, 18]: 0
Plant response rating, Galium ([1]; 62 g ai/ha): 80
Plant response rating, Galium ([1]; 125 g ai/ha): 80
Plant response rating, Galium ([1]; 250 g ai/ha): 85
Plant response rating (scale of 0 to 100), Barnyardgrass [2, 18]: 90
Plant response rating, Barnyardgrass ([2]; 62 g ai/ha): 90
Plant response rating, Barnyardgrass ([2]; 125 g ai/ha): 95
Plant response rating, Barnyardgrass ([2]; 250 g ai/ha): 95
Plant response rating (scale of 0 to 100), Corn [3, 18]: 35
Plant response rating, Corn ([3]; 62 g ai/ha): 55
Plant response rating, Corn ([3]; 125 g ai/ha): 75
Plant response rating, Corn ([3]; 250 g ai/ha): 85
Plant response rating (scale of 0 to 100), Crabgrass, Large [4, 18]: 95
Plant response rating, Crabgrass, Large ([4]; 62 g ai/ha): 100
Plant response rating, Crabgrass, Large ([4]; 125 g ai/ha): 100
Plant response rating, Crabgrass, Large ([4]; 250 g ai/ha): 100
Plant response rating (scale of 0 to 100), Foxtail, Giant [5, 18]: 90
Plant response rating, Foxtail, Giant ([5]; 62 g ai/ha): 90
Plant response rating, Foxtail, Giant ([5]; 125 g ai/ha): 95
Plant response rating, Foxtail, Giant ([5]; 250 g ai/ha): 95
Plant response rating (scale of 0 to 100), Johnsongrass [6, 18]: 45
Plant response rating, Johnsongrass ([6]; 62 g ai/ha): 70
Plant response rating, Johnsongrass ([6]; 125 g ai/ha): 75
Plant response rating, Johnsongrass ([6]; 250 g ai/ha): 85
Plant response rating (scale of 0 to 100), Lambsquarters [7, 18]: 25
Plant response rating, Lambsquarters ([7]; 62 g ai/ha): 55
Plant response rating, Lambsquarters ([7]; 125 g ai/ha): 55
Plant response rating, Lambsquarters ([7]; 250 g ai/ha): 70
Plant response rating (scale of 0 to 100), Morningglory [8, 18]: 10
Plant response rating, Morningglory ([8]; 62 g ai/ha): 35
Plant response rating, Morningglory ([8]; 125 g ai/ha): 40
Plant response rating, Morningglory ([8]; 250 g ai/ha): 45
Plant response rating (scale of 0 to 100), Nutsedge, Yellow [9, 18]: 0
Plant response rating, Nutsedge, Yellow ([9]; 62 g ai/ha): 85
Plant response rating, Nutsedge, Yellow ([9]; 125 g ai/ha): 0
Plant response rating, Nutsedge, Yellow ([9]; 250 g ai/ha): 65
Plant response rating (scale of 0 to 100), Oilseed Rape [10, 18]: 10
Plant response rating, Oilseed Rape ([10]; 62 g ai/ha): 80
Plant response rating, Oilseed Rape ([10]; 125 g ai/ha): 85
Plant response rating, Oilseed Rape ([10]; 250 g ai/ha): 85
Plant response rating (scale of 0 to 100), Pigweed [11, 18]: 70
Plant response rating, Pigweed ([11]; 62 g ai/ha): 80
Plant response rating, Pigweed ([11]; 125 g ai/ha): 85
Plant response rating, Pigweed ([11]; 250 g ai/ha): 85
Plant response rating (scale of 0 to 100), Ragweed [12, 18]: 55
Plant response rating, Ragweed ([12]; 62 g ai/ha): 60
Plant response rating, Ragweed ([12]; 125 g ai/ha): 75
Plant response rating, Ragweed ([12]; 250 g ai/ha): 75
Plant response rating (scale of 0 to 100), Ryegrass, Italian [13, 18]: 55
Plant response rating, Ryegrass, Italian ([13]; 62 g ai/ha): 30
Plant response rating, Ryegrass, Italian ([13]; 125 g ai/ha): 30
Plant response rating, Ryegrass, Italian ([13]; 250 g ai/ha): 35
Plant response rating (scale of 0 to 100), Soybean [14, 18]: 0
Plant response rating, Soybean ([14]; 62 g ai/ha): 0
Plant response rating, Soybean ([14]; 125 g ai/ha): 0
Plant response rating, Soybean ([14]; 250 g ai/ha): 5
Plant response rating (scale of 0 to 100), Velvetleaf [15, 18]: 0
Plant response rating, Velvetleaf ([15]; 62 g ai/ha): 10
Plant response rating, Velvetleaf ([15]; 125 g ai/ha): 45
Plant response rating, Velvetleaf ([15]; 250 g ai/ha): 65
Plant response rating (scale of 0 to 100), Waterhemp [16, 18]: 75
Plant response rating, Waterhemp ([16]; 62 g ai/ha): 80
Plant response rating, Waterhemp ([16]; 125 g ai/ha): 85
Plant response rating, Waterhemp ([16]; 250 g ai/ha): 90
Plant response rating (scale of 0 to 100), Wheat [17, 18]: 60
Plant response rating, Wheat ([17]; 62 g ai/ha): 50
Plant response rating, Wheat ([17]; 125 g ai/ha): 90
Plant response rating, Wheat ([17]; 250 g ai/ha): 90
